Measured values from ChEMBL document CHEMBL1201862, “PubChem BioAssay data set” (2004).
Calls of active or inactive are those of the source.

Legend:
Escherichia coli = experiment: microbe, parasite or virus in culture
[1] = HEK-293T viability loss after treatment – luminescence, T-cell screen hits, cytotoxicity control for TCR NF-kB inhibitor project, dose response (AID 489026); format: functional, cell-based;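 further: cells exposed to compound about 14 hours before the viability readout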
BJ [2] = experiment: cells; format: functional, cell-based; details: Homo sapiens, read-out: EC50
[3] = viability of PTEN-deleted HCT116 cells – cell-based, HCT116 PTEN knockout, dose response (AID 1047); format: functional;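 further: HCT116 colon tumor cells with PTEN knocked out; cells exposed to compound for 60 hours before readout; potency for loss of cell viability measured by luminescence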
[4] = DRD fibroblast viability loss – cell-based, non-viral oncogenic, luminescence, dose response (AID 1934); format: functional; details: Homo sapiens
[5] = viability of HCT116 lacking mutant beta-catenin – cell-based, human colon tumor, dose response (AID 1045); format: functional;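 further: HCT116 colon tumor cells with beta catenin knocked out; cells exposed to compound for 60 hours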
BJ [6] = experiment: BJ-TERT-LT-ST fibroblast viability loss – cell-based, RAS-independent, luminescence, dose response (AID 1935); format: functional; details: Homo sapiens;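 further: BJ fibroblasts immortalized with TERT plus LT and ST oncogenes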
BJ [7] = experiment: BJ-TERT fibroblast viability loss – cell-based, RAS-independent, luminescence, dose response (AID 1933); format: functional; details: Homo sapiens
[8] = molecular target: T1, Heat shock factor protein 1 (Mus musculus, UniProt P38532); experiment: decrease of HSF1-responsive luciferase luminescence – cell-based, NIH3T3, dose retest, confirmation (AID 2382); format: functional;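 further: NIH3T3 fibroblasts with HSF1-driven luciferase reporter stressed by proteasome inhibitor MG132; luminescence from HSF1-driven luciferase expression after 8 hours of MG132 stress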
T1 sequence (P38532 whole entry): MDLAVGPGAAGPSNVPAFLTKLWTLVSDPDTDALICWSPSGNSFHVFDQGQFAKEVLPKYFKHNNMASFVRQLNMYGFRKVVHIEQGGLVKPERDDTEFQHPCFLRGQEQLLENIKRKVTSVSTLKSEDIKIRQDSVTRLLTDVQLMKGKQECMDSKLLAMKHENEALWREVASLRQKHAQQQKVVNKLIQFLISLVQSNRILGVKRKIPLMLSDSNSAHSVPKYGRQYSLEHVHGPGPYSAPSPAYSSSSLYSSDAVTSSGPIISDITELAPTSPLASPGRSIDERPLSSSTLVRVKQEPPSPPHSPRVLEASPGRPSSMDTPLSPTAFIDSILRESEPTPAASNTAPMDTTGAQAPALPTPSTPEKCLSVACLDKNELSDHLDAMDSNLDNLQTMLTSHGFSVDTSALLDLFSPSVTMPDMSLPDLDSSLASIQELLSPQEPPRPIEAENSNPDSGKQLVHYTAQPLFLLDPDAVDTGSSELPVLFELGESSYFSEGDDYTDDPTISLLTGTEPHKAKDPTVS

Paired box protein Pax-8 = Paired box protein Pax-8 (Homo sapiens, UniProt Q06710); experiment: PAX8 transcriptional activity inhibition in RMG-I – RMG-I cells, luciferase, cherry-pick, dose response (AID 687027); format: functional, cell-based;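 further: luciferase reporter driven by Pax8 target thyroperoxidase promoter measured by SteadyGlo luminescence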
[9] = molecular target: T2, Corticotropin-releasing factor receptor 2/Corticotropin-releasing factor-binding protein (Homo sapiens, UniProt P24387+Q13324); experiment: activators of CRF receptor 2 with binding protein – uHTS hits, confirmation (AID 602473); format: functional; details: read-out: EC50_Mean
T2 sequence (Q13324 whole entry): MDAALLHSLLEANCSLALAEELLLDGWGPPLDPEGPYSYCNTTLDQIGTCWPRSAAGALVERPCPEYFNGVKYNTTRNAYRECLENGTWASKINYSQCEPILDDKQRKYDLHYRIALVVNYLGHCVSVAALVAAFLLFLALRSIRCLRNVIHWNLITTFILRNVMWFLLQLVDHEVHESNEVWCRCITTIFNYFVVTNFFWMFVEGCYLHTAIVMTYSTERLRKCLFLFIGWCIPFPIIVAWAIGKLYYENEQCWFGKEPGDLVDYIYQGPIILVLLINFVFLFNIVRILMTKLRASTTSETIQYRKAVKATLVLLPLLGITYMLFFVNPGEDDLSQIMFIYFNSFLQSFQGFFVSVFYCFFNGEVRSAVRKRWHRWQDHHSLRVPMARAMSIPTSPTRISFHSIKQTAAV
T2 sequence (P24387 whole entry): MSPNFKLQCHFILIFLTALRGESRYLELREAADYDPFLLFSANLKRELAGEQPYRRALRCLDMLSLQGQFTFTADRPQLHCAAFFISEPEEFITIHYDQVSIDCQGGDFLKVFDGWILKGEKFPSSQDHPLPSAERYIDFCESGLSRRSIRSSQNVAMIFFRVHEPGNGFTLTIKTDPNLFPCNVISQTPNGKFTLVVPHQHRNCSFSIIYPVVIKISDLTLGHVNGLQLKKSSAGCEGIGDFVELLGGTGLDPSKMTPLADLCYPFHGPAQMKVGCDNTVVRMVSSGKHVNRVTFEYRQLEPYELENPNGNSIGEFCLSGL

[10] = blockers of CRF-binding protein–CRF-R2 complex – cell-based, uHTS hits, 384-well, dose response (AID 651639); format: functional, Homo sapiens; details: read-out: IC50_Mean
[11] = molecular target: T2, Corticotropin-releasing factor receptor 2/Corticotropin-releasing factor-binding protein; experiment: Dose Response confirmation of uHTS hits for small molecule antagonists of the CRF-binding protein and CRF-R2 receptor complex.; format: functional; details: read-out: IC50_Mean
[12] = molecular target: T3, Sentrin-specific protease 7 (Homo sapiens, UniProt Q9BQF6); format: functional;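 further: Luminescence-based dose-response confirmation of ultra-high-throughput screening hits, measuring inhibition of SENP7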
T3 sequence (Q9BQF6 whole entry): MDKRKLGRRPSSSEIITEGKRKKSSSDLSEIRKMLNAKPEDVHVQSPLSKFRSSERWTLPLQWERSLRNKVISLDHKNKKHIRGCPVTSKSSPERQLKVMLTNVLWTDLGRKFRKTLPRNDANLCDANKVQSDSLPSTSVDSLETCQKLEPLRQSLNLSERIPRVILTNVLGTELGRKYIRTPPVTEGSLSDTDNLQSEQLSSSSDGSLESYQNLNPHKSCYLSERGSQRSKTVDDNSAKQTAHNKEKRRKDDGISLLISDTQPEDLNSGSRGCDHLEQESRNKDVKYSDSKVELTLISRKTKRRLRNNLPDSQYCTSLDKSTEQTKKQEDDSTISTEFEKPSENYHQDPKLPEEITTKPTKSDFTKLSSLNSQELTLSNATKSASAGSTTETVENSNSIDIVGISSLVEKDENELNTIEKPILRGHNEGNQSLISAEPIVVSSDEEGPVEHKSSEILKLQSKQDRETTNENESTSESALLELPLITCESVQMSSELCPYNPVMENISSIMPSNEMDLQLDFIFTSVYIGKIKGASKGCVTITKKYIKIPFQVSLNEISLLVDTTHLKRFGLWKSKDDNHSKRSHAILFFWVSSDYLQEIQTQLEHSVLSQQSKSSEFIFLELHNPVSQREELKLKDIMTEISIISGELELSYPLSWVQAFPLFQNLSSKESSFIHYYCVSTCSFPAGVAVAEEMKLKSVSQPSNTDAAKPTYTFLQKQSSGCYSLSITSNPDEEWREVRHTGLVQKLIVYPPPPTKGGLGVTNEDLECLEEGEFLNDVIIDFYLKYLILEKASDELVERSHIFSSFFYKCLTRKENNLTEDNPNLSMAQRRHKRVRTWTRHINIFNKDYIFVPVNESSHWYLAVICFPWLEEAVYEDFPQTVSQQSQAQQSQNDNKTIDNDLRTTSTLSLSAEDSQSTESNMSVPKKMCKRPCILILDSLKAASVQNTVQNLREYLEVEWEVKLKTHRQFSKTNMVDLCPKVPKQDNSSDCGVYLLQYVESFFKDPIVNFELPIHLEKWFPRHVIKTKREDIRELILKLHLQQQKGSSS

[13] = molecular target: T3, Sentrin-specific protease 7; experiment: inhibition of human SENP7 cleavage activity – biochemical, luminescence, SAR follow-up (AID 504497); format: functional
[14] = molecular target: T4, Sentrin-specific protease 6 (Homo sapiens, UniProt Q9GZR1); experiment: SAR Analysis of small molecule inhibitors of Sentrin-specific protease 6 (SENP6) using a Luminescent assay. [Related pubchem assays (depositor defined):AID2582, AID2599]; format: functional
T4 sequence (Q9GZR1 whole entry): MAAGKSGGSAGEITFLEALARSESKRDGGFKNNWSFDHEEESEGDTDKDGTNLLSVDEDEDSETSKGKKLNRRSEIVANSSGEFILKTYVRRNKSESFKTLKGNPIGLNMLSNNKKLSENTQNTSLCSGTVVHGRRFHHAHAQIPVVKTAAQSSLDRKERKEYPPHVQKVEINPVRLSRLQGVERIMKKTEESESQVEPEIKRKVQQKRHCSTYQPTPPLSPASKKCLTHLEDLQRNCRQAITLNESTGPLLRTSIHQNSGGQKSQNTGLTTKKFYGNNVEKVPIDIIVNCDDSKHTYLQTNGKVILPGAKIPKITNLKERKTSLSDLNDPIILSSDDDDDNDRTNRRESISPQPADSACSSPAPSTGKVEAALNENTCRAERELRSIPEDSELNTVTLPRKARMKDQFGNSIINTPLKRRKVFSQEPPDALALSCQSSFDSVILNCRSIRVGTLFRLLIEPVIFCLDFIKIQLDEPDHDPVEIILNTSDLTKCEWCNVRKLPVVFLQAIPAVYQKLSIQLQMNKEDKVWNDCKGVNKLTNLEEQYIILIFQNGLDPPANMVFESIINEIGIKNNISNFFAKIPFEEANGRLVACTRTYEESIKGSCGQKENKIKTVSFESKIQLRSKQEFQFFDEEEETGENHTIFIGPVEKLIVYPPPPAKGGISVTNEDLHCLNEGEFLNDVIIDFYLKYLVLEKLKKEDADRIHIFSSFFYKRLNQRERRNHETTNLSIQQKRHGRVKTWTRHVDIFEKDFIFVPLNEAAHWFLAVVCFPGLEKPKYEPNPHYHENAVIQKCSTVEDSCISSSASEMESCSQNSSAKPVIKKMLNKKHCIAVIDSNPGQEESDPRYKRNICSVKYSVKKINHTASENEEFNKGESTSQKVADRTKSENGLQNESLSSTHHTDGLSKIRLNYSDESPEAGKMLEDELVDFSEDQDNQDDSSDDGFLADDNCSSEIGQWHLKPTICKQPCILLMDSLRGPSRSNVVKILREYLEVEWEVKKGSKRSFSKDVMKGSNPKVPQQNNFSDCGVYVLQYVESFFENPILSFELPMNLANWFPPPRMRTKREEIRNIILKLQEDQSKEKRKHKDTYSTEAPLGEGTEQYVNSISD

[15] = molecular target: T5, Sentrin-specific protease 8 (Homo sapiens, UniProt Q96LD8); format: functional;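 further: luminescence read-out of SENP8 inhibition, dose-response confirmation following an ultra-high-throughput screen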
T5 sequence (Q96LD8 whole entry): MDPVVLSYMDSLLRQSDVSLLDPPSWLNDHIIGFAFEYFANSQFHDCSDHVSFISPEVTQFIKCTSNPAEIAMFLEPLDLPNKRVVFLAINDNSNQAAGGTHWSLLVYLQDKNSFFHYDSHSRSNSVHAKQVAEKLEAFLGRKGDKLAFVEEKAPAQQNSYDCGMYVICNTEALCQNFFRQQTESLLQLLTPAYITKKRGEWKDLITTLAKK

[16] = molecular target: T4, Sentrin-specific protease 6; format: functional
Caspase-3 [17] = molecular target: T6, Caspase-3 (Homo sapiens, UniProt P42574); format: functional
T6 sequence (P42574 whole entry): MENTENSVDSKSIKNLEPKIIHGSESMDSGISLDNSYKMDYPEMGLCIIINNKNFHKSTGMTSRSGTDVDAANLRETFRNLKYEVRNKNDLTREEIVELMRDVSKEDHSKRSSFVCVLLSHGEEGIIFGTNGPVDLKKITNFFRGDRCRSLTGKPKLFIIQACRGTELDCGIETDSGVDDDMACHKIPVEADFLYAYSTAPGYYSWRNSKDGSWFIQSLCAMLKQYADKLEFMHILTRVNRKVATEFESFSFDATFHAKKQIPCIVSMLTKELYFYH

[18] = molecular target: T5, Sentrin-specific protease 8; experiment: inhibition of human SENP8 cleavage activity – biochemical, luminescence, SAR follow-up (AID 504501); format: functional
Caspase-3 [19] = molecular target: T6, Caspase-3; experiment: SAR Analysis of small molecule inhibitors of Sentrin-specific proteases (SENPs) using a Caspase-3 Selectivity assay. [Related pubchem assays (depositor defined):AID2540, AID2599, AID434973, AID489001]; format: functional
Cytochrome P450 3A4 = Cytochrome P450 3A4 (Homo sapiens, UniProt P08684);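 further: CYP3A4 tested as one member of a cytochrome P450 panel screen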
Cytochrome P450 3A4, sequence (P08684 whole entry): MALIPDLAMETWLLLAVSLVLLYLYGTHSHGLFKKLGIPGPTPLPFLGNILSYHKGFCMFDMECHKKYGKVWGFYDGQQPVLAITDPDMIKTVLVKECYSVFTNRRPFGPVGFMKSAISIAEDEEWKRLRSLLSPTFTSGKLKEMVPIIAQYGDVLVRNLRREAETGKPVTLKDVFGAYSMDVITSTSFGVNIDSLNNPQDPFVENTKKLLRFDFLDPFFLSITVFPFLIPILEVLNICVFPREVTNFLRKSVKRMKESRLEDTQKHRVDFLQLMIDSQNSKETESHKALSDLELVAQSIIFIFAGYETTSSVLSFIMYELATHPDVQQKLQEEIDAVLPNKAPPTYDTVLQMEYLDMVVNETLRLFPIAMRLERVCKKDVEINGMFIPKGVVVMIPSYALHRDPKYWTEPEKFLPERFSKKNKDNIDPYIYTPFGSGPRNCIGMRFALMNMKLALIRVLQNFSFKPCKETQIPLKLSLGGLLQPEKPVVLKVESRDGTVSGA

Paired box protein Pax-8, sequence (Q06710 whole entry): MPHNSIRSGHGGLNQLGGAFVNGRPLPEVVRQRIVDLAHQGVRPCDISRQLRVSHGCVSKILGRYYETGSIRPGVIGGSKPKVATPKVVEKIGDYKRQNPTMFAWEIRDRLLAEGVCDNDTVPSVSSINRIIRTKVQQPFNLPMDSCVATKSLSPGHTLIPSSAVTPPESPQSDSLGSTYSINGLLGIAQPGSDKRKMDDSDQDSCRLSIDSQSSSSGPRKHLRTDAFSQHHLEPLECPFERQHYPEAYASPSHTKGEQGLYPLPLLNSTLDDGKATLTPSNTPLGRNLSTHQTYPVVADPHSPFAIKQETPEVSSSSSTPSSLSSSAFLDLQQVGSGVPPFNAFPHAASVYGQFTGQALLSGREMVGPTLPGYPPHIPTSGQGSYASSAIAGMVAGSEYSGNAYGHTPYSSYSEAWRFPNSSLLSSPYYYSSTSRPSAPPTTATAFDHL

Cc1ccc(-c2cc(C(=O)OCC(=O)N(C)c3c(N)n(Cc4ccccc4)c(=O)[nH]c3=O)c3ccccc3n2)o1
AC50 (Escherichia coli): 25.8 µM (active)

COc1cc(C(=O)N2CCN(c3cccc(C)c3C)CC2)cc(OC)c1OC
IC50 [1]: > 80 µM (inactive) | EC50 (BJ [2]): 20.4 µM (active) | EC50 [3]: 0.876 µM (active) | EC50 [4]: 11.8 µM (inconclusive) | EC50 [5]: 0.721 µM (active) | EC50 (BJ [6]): 4.12 µM (active) | EC50 (BJ [7]): 7.81 µM (inconclusive)

C/N=c1\scc(-c2cccs2)n1/N=C/c1ccccc1O
IC50 [1]: > 80 µM (inactive) | EC50 [8]: < 0.16 µM (active) | AC50 (Paired box protein Pax-8): < 0.26 µM (active)

COC(=O)C1=NN(c2ccccc2)C2(S1)SC(C(C)=O)=C(C)N2c1ccccc1 (centres undefined)
EC50 [9]: > 53 µM (inactive) | IC50 [10]: 19 µM (active) | IC50 [11]: 25.7 µM (active)

CSc1nc2ccc(NC(=O)c3cc4ccccc4o3)cc2s1
IC50 [12]: > 100 µM (inactive) | IC50 [13]: 0.896 µM (active) | IC50 [14]: 0.905 µM (active) | IC50 [15]: 94.3 µM (active) | IC50 [16]: 13.5 µM (active) | IC50 (Caspase-3 [17]): > 100 µM (inactive) | IC50 [18]: 0.869 µM (active) | IC50 (Caspase-3 [19]): 1.41 µM (active)

CS(=O)(=O)N1CCC2(CC1)CN(C(c1ccccc1)c1ccccc1)C2
AC50 (Cytochrome P450 3A4): inconclusive

CC1(C)CC(=O)c2cnc(N)nc2C1
AC50 (Cytochrome P450 3A4): inconclusive
